pIC50: −log10 of the molar value.

Assay [1] has as its target Serine/threonine-protein kinase 10 (Homo sapiens) (UniProt O94804). Nature of the assay: Selectivity interaction (Upstate Kinase Profiler service (Millipore)) EUB0000056c STK10. Particulars: at 1 µM.
For assay [2], the target named is Homeodomain-interacting protein kinase 3 (Homo sapiens, UniProt Q9H422). As to the kind of experiment: Selectivity interaction (KinomeScan (DiscoverX)) EUB0001079a HIPK3. Conditions: at 1 µM.
Assay [3] concerns the target Homeodomain-interacting protein kinase 2 (Homo sapiens, UniProt Q9H2X6). Nature of the assay: Selectivity interaction (Enzymatic assay (Eurofins)) EUB0001049a HIPK2.
Assay [4] addresses Mitogen-activated protein kinase 1 (Homo sapiens, UniProt P28482). As to the kind of experiment: Selectivity interaction (KinomeScan (DiscoverX)) EUB0001049a MAPK1. Particulars: at 1 µM.
Assay [5] has as its target Beta-2 adrenergic receptor (Homo sapiens, UniProt P07550). As to the kind of experiment: Selectivity interaction (Panel of non-epigenetic targets (kinases, GPCRs, ion channels, and transporters, Eurofins) ) EUB0000271b ADRB2. Conditions: at 1 µM.
For assay [6], the target named is Serine/threonine-protein kinase 35 (Homo sapiens) (UniProt Q8TDR2). Nature of the assay: Selectivity interaction (KinomeScan (DiscoverX)) EUB0000045b STK35.
In assay [7] the target is RAC-beta serine/threonine-protein kinase (Homo sapiens) (UniProt P31751). Nature of the assay: Selectivity interaction (Kinase panel (Z-LYTE Assay)) EUB0001632a AKT2. Conditions: at 10 µM.
Assay [8] concerns the target Mitogen-activated protein kinase 7 (Homo sapiens) (UniProt Q13164). Nature of the assay: Selectivity interaction (Kinase panel (Z-LYTE Assay)) EUB0001632a MAPK7. Particulars: at 10 µM.
Assay [9] concerns the target Myosin light chain kinase, smooth muscle (Homo sapiens, UniProt Q15746). As to the kind of experiment: Selectivity interaction (LanthaScreen Eu Kinase Binding Assay) EUB0001632a MYLK. Particulars: at 10 µM. A general note: In TR-FRET formats the signal depends on donor and acceptor labels being close together.
In assay [10] the target is T1, Protein kinase C zeta type (Homo sapiens) (UniProt Q05513).
T1 sequence (whole entry): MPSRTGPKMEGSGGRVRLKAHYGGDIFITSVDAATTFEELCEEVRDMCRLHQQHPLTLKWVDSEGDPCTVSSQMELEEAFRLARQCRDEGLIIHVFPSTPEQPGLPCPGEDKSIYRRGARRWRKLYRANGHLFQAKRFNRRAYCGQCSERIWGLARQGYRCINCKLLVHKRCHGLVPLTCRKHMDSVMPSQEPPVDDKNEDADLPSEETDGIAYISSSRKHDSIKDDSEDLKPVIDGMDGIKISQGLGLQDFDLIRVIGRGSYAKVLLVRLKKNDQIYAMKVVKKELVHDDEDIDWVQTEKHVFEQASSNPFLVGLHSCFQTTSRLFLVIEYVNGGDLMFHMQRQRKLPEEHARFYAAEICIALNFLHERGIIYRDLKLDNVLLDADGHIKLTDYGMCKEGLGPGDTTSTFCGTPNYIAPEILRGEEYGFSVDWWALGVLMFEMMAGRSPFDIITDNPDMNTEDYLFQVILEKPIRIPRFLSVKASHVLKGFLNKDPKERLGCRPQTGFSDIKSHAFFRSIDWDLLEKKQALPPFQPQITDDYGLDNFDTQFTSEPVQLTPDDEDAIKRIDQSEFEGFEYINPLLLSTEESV
As to the kind of experiment: Selectivity interaction (SelectScreen profiling (Invitrogen)) EUB0000607a PRKCZ. Particulars: at 2 µM.

For assay [11], the target named is STE20/SPS1-related proline-alanine-rich protein kinase (Homo sapiens) (UniProt Q9UEW8). Nature of the assay: Selectivity interaction (ActivX KiNativ screen (kinase selectivity in THP-1 cell lysates)) EUB0000639a STK39. It is filed as subcellular. Conditions: lysate.
Assay [12] deals with Fibroblast growth factor receptor 2 (Homo sapiens) (UniProt P21802). Nature of the assay: Selectivity interaction (KinomeScan (DiscoverX)) EUB0000229b FGFR2. Particulars: at 10 µM.
In assay [13] the target is Mitogen-activated protein kinase kinase kinase 10 (Homo sapiens) (UniProt Q02779). Nature of the assay: Selectivity interaction (KinomeScan (DiscoverX)) EUB0000229b MAP3K10. Particulars: at 10 µM.
Assay [14] concerns the target TGF-beta receptor type-2 (Homo sapiens) (UniProt P37173). Particulars: at 10 µM.
Assay [15] deals with T2, Tyrosine-protein kinase ITK/TSK (Homo sapiens) (UniProt Q08881).
T2 sequence (whole entry): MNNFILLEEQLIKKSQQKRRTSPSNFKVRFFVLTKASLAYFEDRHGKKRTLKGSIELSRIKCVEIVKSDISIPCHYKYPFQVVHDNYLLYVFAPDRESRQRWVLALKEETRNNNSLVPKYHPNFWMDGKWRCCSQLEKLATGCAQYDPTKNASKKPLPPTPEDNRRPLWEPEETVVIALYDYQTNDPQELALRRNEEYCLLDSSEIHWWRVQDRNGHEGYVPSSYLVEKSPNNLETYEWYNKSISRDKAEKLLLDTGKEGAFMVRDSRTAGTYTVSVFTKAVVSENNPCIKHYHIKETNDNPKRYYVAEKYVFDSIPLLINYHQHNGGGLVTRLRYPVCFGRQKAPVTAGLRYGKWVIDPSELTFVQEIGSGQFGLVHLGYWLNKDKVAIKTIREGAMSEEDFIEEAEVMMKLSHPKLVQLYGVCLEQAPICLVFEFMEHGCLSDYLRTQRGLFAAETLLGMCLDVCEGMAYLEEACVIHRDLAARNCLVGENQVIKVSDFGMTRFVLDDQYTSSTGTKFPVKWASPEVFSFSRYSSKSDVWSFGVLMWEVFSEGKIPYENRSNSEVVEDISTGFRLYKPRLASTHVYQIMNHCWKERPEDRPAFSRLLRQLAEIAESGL
As to the kind of experiment: Selectivity interaction (KinomeScan (DiscoverX)) EUB0000618a ITK. Particulars: at 10 µM.

Sequence of Serine/threonine-protein kinase 35 (Homo sapiens) (Q8TDR2 whole entry): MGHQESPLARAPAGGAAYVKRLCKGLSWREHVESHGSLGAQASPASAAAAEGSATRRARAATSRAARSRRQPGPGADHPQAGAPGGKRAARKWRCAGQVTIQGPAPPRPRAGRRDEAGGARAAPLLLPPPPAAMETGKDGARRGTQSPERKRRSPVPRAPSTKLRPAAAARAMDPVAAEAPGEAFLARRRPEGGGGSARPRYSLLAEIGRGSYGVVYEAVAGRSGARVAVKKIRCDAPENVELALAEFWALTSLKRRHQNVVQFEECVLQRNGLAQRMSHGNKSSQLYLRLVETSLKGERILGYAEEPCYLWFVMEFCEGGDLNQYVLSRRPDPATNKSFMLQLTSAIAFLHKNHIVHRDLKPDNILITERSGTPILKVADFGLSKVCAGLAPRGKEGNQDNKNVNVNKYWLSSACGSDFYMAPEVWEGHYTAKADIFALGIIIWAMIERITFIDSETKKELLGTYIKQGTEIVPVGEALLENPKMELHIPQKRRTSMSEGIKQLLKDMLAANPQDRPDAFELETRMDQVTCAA
Sequence of TGF-beta receptor type-2 (Homo sapiens) (P37173 whole entry): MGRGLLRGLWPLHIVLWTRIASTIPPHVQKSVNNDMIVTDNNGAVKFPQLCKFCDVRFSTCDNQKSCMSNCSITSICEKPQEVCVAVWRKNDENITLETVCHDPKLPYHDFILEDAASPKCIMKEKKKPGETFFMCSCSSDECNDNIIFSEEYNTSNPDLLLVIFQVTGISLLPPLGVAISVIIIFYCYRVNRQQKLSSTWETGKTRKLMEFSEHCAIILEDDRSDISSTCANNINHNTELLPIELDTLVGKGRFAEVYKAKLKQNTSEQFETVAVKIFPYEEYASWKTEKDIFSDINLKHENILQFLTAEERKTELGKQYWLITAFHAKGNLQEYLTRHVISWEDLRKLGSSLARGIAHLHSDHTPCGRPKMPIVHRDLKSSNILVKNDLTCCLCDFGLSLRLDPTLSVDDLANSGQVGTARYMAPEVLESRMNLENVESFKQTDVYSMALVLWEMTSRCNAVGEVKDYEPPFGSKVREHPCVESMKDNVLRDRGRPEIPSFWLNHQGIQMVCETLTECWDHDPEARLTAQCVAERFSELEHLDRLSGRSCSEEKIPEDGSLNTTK
Sequence of Homeodomain-interacting protein kinase 2 (Q9H2X6 whole entry): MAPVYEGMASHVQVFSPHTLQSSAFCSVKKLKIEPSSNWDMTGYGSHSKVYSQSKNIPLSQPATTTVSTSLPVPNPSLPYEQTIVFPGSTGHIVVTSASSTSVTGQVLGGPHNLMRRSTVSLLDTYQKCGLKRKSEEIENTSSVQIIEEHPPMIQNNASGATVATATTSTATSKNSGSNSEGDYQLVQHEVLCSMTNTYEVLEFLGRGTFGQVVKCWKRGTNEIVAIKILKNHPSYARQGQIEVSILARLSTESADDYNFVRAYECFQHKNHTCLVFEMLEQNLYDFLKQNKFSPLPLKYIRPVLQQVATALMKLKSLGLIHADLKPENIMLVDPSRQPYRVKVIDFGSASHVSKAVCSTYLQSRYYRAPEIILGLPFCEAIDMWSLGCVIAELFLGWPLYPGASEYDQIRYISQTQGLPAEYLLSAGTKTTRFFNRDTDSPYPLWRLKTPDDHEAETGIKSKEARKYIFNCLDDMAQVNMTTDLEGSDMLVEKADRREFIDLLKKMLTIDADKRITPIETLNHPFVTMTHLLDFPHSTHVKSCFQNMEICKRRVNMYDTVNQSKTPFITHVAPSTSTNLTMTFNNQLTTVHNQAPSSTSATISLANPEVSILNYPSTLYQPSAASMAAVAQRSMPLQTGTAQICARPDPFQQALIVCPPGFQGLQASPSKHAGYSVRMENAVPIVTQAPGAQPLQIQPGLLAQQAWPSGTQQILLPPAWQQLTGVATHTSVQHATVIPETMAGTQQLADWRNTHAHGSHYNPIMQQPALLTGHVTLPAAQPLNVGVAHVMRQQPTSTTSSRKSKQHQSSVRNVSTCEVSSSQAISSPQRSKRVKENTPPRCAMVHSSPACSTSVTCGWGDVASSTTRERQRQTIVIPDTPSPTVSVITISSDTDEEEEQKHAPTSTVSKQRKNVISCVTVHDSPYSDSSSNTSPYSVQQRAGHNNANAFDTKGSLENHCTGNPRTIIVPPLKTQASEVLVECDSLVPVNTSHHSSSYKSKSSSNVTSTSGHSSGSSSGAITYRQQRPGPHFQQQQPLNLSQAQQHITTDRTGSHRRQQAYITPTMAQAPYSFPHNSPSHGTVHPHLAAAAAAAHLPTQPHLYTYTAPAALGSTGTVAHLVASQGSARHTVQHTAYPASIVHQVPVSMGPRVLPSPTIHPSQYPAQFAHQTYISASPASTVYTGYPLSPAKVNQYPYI
Sequence of Mitogen-activated protein kinase kinase kinase 10 (Homo sapiens) (Q02779 whole entry, looked up): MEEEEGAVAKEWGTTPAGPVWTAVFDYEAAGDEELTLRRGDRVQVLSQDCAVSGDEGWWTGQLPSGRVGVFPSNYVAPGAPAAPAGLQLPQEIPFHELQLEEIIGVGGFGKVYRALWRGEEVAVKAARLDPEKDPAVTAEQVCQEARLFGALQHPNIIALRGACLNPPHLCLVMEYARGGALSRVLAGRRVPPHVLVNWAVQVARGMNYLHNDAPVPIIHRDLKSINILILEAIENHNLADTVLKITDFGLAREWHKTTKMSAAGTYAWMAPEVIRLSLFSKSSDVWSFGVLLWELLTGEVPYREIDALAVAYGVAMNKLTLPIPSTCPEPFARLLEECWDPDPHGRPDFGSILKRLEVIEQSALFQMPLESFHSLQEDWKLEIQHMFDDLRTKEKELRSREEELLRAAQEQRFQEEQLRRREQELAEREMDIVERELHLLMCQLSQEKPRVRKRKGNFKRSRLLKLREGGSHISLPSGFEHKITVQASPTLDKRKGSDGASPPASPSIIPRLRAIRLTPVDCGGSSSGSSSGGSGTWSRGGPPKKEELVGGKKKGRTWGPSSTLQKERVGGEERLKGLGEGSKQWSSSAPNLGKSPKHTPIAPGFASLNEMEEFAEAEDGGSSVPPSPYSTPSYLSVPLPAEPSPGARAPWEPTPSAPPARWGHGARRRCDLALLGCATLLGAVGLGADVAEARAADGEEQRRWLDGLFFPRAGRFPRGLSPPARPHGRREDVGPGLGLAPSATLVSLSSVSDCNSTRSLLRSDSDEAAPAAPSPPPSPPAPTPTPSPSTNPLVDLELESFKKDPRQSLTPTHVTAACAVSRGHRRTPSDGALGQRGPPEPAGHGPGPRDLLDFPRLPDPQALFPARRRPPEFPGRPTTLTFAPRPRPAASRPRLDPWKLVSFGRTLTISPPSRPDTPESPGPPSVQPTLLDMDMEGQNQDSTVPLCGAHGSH
Sequence of Serine/threonine-protein kinase 10 (Homo sapiens) (O94804 whole entry, looked up): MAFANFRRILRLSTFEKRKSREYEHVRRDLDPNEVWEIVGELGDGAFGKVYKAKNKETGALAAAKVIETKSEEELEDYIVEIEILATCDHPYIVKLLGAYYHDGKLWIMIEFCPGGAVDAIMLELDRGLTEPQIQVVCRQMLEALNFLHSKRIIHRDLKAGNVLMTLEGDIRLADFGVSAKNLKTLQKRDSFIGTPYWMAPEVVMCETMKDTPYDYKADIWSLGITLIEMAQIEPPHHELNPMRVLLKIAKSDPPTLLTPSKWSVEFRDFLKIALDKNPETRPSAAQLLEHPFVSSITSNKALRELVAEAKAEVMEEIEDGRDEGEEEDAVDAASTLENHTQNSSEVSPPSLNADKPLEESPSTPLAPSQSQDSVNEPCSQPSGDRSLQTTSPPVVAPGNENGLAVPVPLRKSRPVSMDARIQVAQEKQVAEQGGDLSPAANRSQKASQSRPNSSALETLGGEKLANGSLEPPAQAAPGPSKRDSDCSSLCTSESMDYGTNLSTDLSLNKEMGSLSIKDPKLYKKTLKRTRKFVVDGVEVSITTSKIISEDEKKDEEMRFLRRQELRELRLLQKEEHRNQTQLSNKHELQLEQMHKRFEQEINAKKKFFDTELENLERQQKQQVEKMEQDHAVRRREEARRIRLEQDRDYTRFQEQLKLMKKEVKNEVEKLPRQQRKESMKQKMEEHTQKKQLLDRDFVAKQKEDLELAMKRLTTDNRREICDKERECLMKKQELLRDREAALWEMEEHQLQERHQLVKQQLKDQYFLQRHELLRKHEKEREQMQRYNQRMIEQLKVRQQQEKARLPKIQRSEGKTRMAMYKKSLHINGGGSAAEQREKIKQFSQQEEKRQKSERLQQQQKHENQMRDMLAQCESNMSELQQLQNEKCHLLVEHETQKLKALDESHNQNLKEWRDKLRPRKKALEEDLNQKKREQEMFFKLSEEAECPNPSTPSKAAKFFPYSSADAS
Sequence of RAC-beta serine/threonine-protein kinase (Homo sapiens) (P31751 whole entry): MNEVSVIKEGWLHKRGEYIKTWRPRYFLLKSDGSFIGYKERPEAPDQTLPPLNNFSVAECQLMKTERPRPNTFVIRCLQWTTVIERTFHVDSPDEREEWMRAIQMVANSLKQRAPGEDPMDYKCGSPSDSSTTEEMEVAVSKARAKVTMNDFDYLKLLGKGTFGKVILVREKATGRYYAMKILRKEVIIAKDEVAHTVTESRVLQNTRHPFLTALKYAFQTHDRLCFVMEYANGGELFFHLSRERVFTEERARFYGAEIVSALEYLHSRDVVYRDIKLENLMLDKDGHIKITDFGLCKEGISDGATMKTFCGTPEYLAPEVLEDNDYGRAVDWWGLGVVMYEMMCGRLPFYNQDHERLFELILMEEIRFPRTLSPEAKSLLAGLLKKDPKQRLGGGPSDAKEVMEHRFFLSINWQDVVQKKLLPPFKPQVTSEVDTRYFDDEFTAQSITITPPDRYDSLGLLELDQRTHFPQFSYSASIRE
Sequence of Mitogen-activated protein kinase 1 (P28482 whole entry): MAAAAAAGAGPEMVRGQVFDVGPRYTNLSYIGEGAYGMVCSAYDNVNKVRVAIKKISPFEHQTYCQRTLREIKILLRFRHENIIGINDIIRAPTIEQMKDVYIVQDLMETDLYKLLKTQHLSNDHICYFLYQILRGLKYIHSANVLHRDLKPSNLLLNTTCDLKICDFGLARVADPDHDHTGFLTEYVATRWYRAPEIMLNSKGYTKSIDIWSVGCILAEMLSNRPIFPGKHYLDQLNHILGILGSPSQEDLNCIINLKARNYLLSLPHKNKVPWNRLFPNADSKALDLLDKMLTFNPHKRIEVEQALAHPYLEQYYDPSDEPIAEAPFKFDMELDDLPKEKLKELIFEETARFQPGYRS

For `Cc1ccc(-c2ccc3c(ccc4sc5c(c43)NC[C@@H](C)NC5=O)n2)cn1`, the % of inhibition in assay [1] is 47%.

Turning to `Nc1cnc(N2CCc3cc(S(=O)(=O)Nc4c(F)cc(Cl)cc4F)cc(N4CCCC4=O)c32)nc1` [TP-020n], the % of control in assay [2] came to 100%.

In general, pIC50 refers to the IC50 on a negative log10 scale, so that one unit is a factor of ten. Lower therefore signals a high IC50. In [3], `COc1cc(Nc2nc(C)cc(-c3cnn4nc(OC)ccc34)n2)cc(C(F)(F)F)c1` gave a pIC50 of less than 5.00. Further, the % of control in assay [4] was 100%.

As for `Cc1cc(C)cc([C@@H]2c3cc(C)ccc3NC(=O)CN2C(=O)c2ccc(Br)s2)c1`, the % of inhibition in assay [5] was -7%.

Regarding `C=CC(=O)Nc1cc(-n2c(=O)ccc3cnc4ccc(-c5ccc(NS(C)(=O)=O)cc5)cc4c32)ccc1C`, the % of control in assay [6] (at 1 µM) and in [6] (at 10 µM) was 100% in each case.

Take `Cn1cc(-n2cnc3c(NCc4nc5cc(Cl)c(Cl)cc5[nH]4)nc(N4CCOCC4)nc32)cn1`: the values for the % of control in assay [7] and in assay [8] were -2.38% and 2.02%, respectively. The % of inhibition in assay [9] was -1.03%.

With `CNC(=O)Nc1ccc(-c2nc(N3CC4CCC(C3)O4)c3cnn(C4CCC5(CC4)OCCO5)c3n2)cc1`, the % of inhibition in assay [10] worked out at 8%.

For the molecule `CC[C@@H]1[C@H](F)C(=O)N[C@@H]1COc1nccc2cc(C(N)=O)c(OC)cc12` [ZIMLOVISERTIB], the % of inhibition was 3.8% in [11] (at 0.01 µM); -1.3% in assay [11] (at 0.04 µM); 2.2% in assay [11] (at 0.2 µM); -9.4% in assay [11] (at 1 µM); 1.5% in [11] (at 5 µM).

For `COc1cc(N(C)c2ccnc3ccc(C(F)(F)F)cc23)cc(OC)c1OC`, the % binding in assay [12] and in assay [13] was 100% in each case.

Consider `COCC(=O)NC/C=C/c1ccc2ncnc(Nc3ccc(Oc4ccc(C)nc4)c(C)c3)c2c1` [CP-724714], for which, in assay [14], the % of control was determined as 94%.

As to `O[C@H]1CC[C@H](Nc2ncc3nc(Nc4c(F)cc(F)cc4F)n([C@H]4CCOC4)c3n2)CC1`, the % of control in assay [15] was found to be 100%.

These data come from ChEMBL document CHEMBL5465560, “Selectivity Literature for EUbOPEN Chemogenomic Library” (2024).
